The source of these data is publication PMC8619001, “Discovery of New Ginsenol-Like Compounds with High Antiviral Activity” (Molecules, 2021).

The experiment deals with influenza virus A/Puerto Rico/8/34 (H1N1), GS-R virus. Description: microbe, parasite or virus in culture. The experiment is classed as cell-based.

The term IC50 denotes the point on the concentration scale where inhibition reaches its midpoint. As to `CC(=O)NC12CC(C)(C)C3CCC1(C)CCCC32C` [Compound 1a, (1S,3aR,4R,7aS)-N-(2,2,4,7a-tetramethyloctahydro-1,4-etanoinden-3a-yl)-acetamide], the “Fold increase of IC50 versus virus passaged without GS” value was “almost five-fold higher”. Besides, the IC50 (unidentified influenza virus, H1N1, MDCK, read-out: IC50 to GS) worked out at 106 µM.
